± gives the standard deviation of the averaged measurements.
Test system: HepaRG
Assay: LDH release cytotoxicity, % of total lysis control; higher = more cytotoxic
Conditions: 48 h
In short: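 HepaRG cells from a single lot were plated on collagen I-coated 96-well plates and treated in duplicate for 48 h with eight-point half-log series of test chemicals, starting at 100 µM, in serum-free induction medium containing 0.5% DMSO. Total lysis wells were given 0.1% Triton X. LDH released into 50 µL of spent medium was measured as resorufin fluorescence with CytoTox-ONE on a Tecan Safire. Percent cytotoxicity was normalized to on-plate vehicle and total lysis controls and then averaged across duplicates.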

Structure (SMILES)	LDH release cytotoxicity (0.03162 µM) [%]	LDH release cytotoxicity (0.1 µM) [%]	LDH release cytotoxicity (0.3162278 µM) [%]	LDH release cytotoxicity (1 µM) [%]	LDH release cytotoxicity (3.16228 µM) [%]	LDH release cytotoxicity (10 µM) [%]	LDH release cytotoxicity (31.6228 µM) [%]	LDH release cytotoxicity (100 µM) [%]	other results
CCCCOC(=O)CCCCC(=O)OCCCC [Dibutyl adipate]	–	–	–	–	–	–	–	–	LDH release cytotoxicity (0.0317809 µM): -0.761 ± 1%; LDH release cytotoxicity (0.1005 µM): -1.45 ± 0.41%; LDH release cytotoxicity (0.317809 µM): -1.74 ± 0.8%; LDH release cytotoxicity (1.005 µM): -1.12 ± 0.14%; LDH release cytotoxicity (3.17809 µM): -1.24 ± 0.86%; LDH release cytotoxicity (10.05 µM): -0.568 ± 0.45%; LDH release cytotoxicity (31.7809 µM): 0.579 ± 0.27%; LDH release cytotoxicity (100.5 µM): 2.35 ± 1.2%
CCCCOC(=O)CCCCCCCCC(=O)OCCCC [Dibutyl decanedioate]	-1.01 ± 0.4	-1.61 ± 0.65	-1.81 ± 0.16	-2.3 ± 0.41	-2.91 ± 0.79	-1.92 ± 0.027	-1.43 ± 1	0.112 ± 0.92	–
CCCCOC(=O)c1ccccc1C(=O)OCCCC [Dibutyl phthalate]	6.54 ± 1.9	3.46 ± 1.6	3.28 ± 0.066	4.3 ± 0.12	4.61 ± 0.89	4.63 ± 1	6.08 ± 2	9.42 ± 0.15	–
COc1c(Cl)ccc(Cl)c1C(=O)O [Dicamba]	-2.43 ± 1.4	-1.52 ± 0.043	-0.804 ± 0.36	-2.09 ± 0.64	-0.996 ± 0.75	-0.906 ± 0.014	-0.688 ± 0.24	0.691 ± 0.52	–
N#Cc1c(Cl)cccc1Cl [Dichlobenil]	0.00697 ± 0.72	-0.347 ± 1.1	-1.05 ± 0.013	-1.65 ± 0.47	0.43 ± 1.9	0.582 ± 0.39	1.87 ± 0.054	1.99 ± 1.2	–
O=C(O)C(Cl)Cl [Dichloroacetic acid]	-1.93 ± 1.3	-1.93 ± 0.89	-1.5 ± 1.6	-2.38 ± 1.1	-2.6 ± 1.3	-1.71 ± 0.32	-2.34 ± 0.81	0.0869 ± 1.1	–
Clc1ccc(C(c2ccc(Cl)cc2)C(Cl)(Cl)Cl)cc1 [Dichlorodiphenyltrichloroethane]	0.0415 ± 1	0.0911 ± 1	0.015 ± 0.3	0.105 ± 0.45	0.853 ± 0.39	0.81 ± 0.52	0.658 ± 0.99	1.05 ± 0.28	–
CC(Oc1ccc(Cl)cc1Cl)C(=O)O (centres undefined) [Dichlorprop]	-0.461 ± 0.19	-0.49 ± 0.4	-0.517 ± 1.3	0.354 ± 0.43	0.35 ± 0.52	0.358 ± 0.17	0.57 ± 0.15	1.75 ± 0.062	–
COP(=O)(OC)OC=C(Cl)Cl [Dichlorvos]	-0.581 ± 0.43	-0.968 ± 0.24	-1.1 ± 0.092	-0.845 ± 0.11	-0.267 ± 0.61	-0.149 ± 0.26	-0.147 ± 0.48	2.09 ± 0.43	–
O=C(O)Cc1ccccc1Nc1c(Cl)cccc1Cl [Diclofenac sodium]	0.371 ± 0.76	-0.605 ± 0.41	-1.36 ± 0.43	-0.678 ± 0.21	-0.378 ± 0.25	-0.578 ± 0.3	1.19 ± 0.14	12 ± 1	–
Nc1c(Cl)cc([N+](=O)[O-])cc1Cl [Dicloran]	-0.748 ± 0.034	-1.57 ± 0.49	-1.57 ± 0.62	-2.63 ± 0.73	-1.28 ± 0.36	-1.61 ± 0.56	-0.997 ± 0.16	0.0971 ± 0.81	–
CCOc1nc(F)cc2nc(S(=O)(=O)Nc3c(Cl)cccc3Cl)nn12 [Diclosulam]	–	–	–	–	–	–	–	–	LDH release cytotoxicity (0.01581 µM): -5.4 ± 0.3%; LDH release cytotoxicity (0.05 µM): -5.8 ± 0.38%; LDH release cytotoxicity (0.1581139 µM): -6.31 ± 0.31%; LDH release cytotoxicity (0.5 µM): -6.08 ± 0.24%; LDH release cytotoxicity (1.5811388 µM): -6.09 ± 0.25%; LDH release cytotoxicity (5 µM): -5.21 ± 0.053%; LDH release cytotoxicity (15.8114 µM): -4.75 ± 0.14%; LDH release cytotoxicity (50 µM): -3.63 ± 0.7%
OC(c1ccc(Cl)cc1)(c1ccc(Cl)cc1)C(Cl)(Cl)Cl [Dicofol]	-4.47 ± 0.11	-4.19 ± 0.15	-3.36 ± 1.2	-3.88 ± 0.76	-3.71 ± 1.1	-3.02 ± 0.35	-3.41 ± 0.081	-0.0654 ± 3	–
COP(=O)(OC)OC(C)=CC(=O)N(C)C [Dicrotophos]	-2.01 ± 0.28	-1.23 ± 0.051	-1.47 ± 0.12	-2.46 ± 0.19	-1.22 ± 0.6	-0.345 ± 0.14	1.7 ± 0.058	-0.538 ± 0.6	–
CC(C)(OOC(C)(C)c1ccccc1)c1ccccc1 [Dicumyl peroxide]	-3.28 ± 0.56	-3.3 ± 0.54	-1.36 ± 0.58	-1.54 ± 1	-0.973 ± 1.9	-1.43 ± 0.79	-0.756 ± 0.26	-0.201 ± 1.3	–
C1CCC(SSC2CCCCC2)CC1 [Dicyclohexyl disulfide]	-0.985 ± 0.37	-0.62 ± 0.75	-0.405 ± 0.35	-1.38 ± 0.086	-2 ± 0.2	-0.29 ± 0.24	2.64 ± 0.37	68.4 ± 6.2	–
CCCCCCCCCC[N+](C)(C)CCCCCCCCCC [Didecyldimethylammonium chloride]	–	–	–	–	–	–	–	–	LDH release cytotoxicity (0.0317809 µM): -1.08 ± 1.2%; LDH release cytotoxicity (0.1005 µM): -0.913 ± 0.75%; LDH release cytotoxicity (0.317809 µM): -0.501 ± 0.85%; LDH release cytotoxicity (1.005 µM): -2.08 ± 0.42%; LDH release cytotoxicity (3.17809 µM): -0.414 ± 0.69%; LDH release cytotoxicity (10.05 µM): 0.276 ± 0.56%; LDH release cytotoxicity (31.7809 µM): 0.202 ± 0.086%; LDH release cytotoxicity (100.5 µM): 1.33 ± 0.6%
ClC1=C(Cl)C2(Cl)C3C4CC(C5OC45)C3C1(Cl)C2(Cl)Cl (centres undefined) [Dieldrin]	-0.556 ± 0.44	-1.67 ± 0.84	-1.33 ± 0.11	-1.987 ± 0.015	-2.14 ± 0.65	-0.0152 ± 1.5	-0.473 ± 0.01	2.21 ± 0.079	–
